Source: patent publication US5409952A, “Heterocyclic compounds: 2-styryl-4H-1-benzopyran-4-ones” (Adir et Compagnie, priority 1990, dated 1995)

Key:
[1] = system: HL-60 cells; assay: Cell differentiation of HL-60 cells (NBT reduction); type: cell-based, human; settings: HL-60, 20 μM, six days
Experimental: The cell differentiation is determined according to the method of J. M. GALLUP and al. (Proceedings of the Society for Experimental Biology and Medecine, 186, 269-274, 1987).
HL-60 cells (human promyclocyte) (2×10^5 cells/ml) are incubated during six days with the tested compounds. An aliquot (0,5 ml) of cells is than incubated with 0,5 ml of a 0,2% NBT (Nitroblue Tetrazolium) solution and […] of PMA (phorbol ester) for 20 min at 37° C.
Cells are washed with PBS and numbered under microscope, Table VII lists the percentage of cells containing cristals of reduced NBT (i,e, % of positive NBT cells) at the concentration of 20 μM.

[2] = system: colon C38 adenocarcinoma; assay: Anti-tumour activity on colon C38 adenocarcinoma in vivo; parameters: species or system mice; settings: colon 38 fragment s.c.; i.p. on 2nd and 4th days after implantation; day 20
Experimental: After subcutaneous implantation of a fragment of tumour (colon 38) in the axillary region, on the 2nd and 4th days after implantation a solution of the test compound is administered to a group of animals by the intraperitoneal route. On the 20th day the animals are sacrificed and the tumour volume is ascertained.
The % T/C ratio is calculated as follows: [formula]

[3] = system: L1210 cell line; assay: Growth inhibition of cell line L1210 (tritiated thymidine incorporation); type: cell-based, mice; settings: Mus musculus, L1210, 24 hours, read-out: IC50, concentration that inhibits cell growth by 50%
Experimental: The growth of this leukaemia cell line in mice is assessed by the capacity of the cells to incorporate tritiated thymidine. The rate of incorporation is measured 24 hours after the introduction of the test compound into the culture medium.
Table V lists, for each compound, the concentration that inhibits cell growth by 50%.

[4] = Hypervitamin A toxicity; settings: result in words
[5] = patent EP 237166; isolated from an alga; cited from earlier work

Row | IC50 [3] [µM] | Compound | % of positive NBT cells [1] [%] | further results
1 | 12.5 | COC(=O)c1c(OC)cc2oc(/C=C/c3ccccc3)cc(=O)c2c1OC [Example 1, Methyl 5,7-Dimethoxy-4-Oxo-2-Styryl-4H-1-Benzopyran-6-Carboxylate] | 52 | T/C % [2]: 56%; Tumour volume after 20 days [2]: 573 mm3
2 | 6.4 | COC(=O)c1c(OC)cc2oc(/C=C/c3ccc(OC)c(OC)c3)cc(=O)c2c1OC [Example 2, Methyl 5,7-Dimethoxy-4-Oxo-2-(3,4-Dimethoxy-Styryl) -4H-1-Benzopyran-6-Carboxylate] | 85 | T/C % [2]: 35%; Tumour volume after 20 days [2]: 356 mm3
3 | 5 | COC(=O)c1c(OC)cc2oc(/C=C/c3cc(OC)c(OC)c(OC)c3)cc(=O)c2c1OC [Example 3, Methyl 5,7-Dimethoxy-4-Oxo-2-(3,4,5-Tri-Methoxystyryl) -4H-1-Benzopyran-6-Carboxylate] | 59 | –
4 | 12 | COC(=O)c1ccc(/C=C/c2cc(=O)c3c(OC)c(C(=O)OC)c(OC)cc3o2)cc1 [Example 4, Methyl 5,7-Dimethoxy-2-(4-Methoxycarbonyl-Styryl)-4H -1-Benzopyran-6-Carboxylate] | – | –
5 | 8.5 | COc1ccc(/C=C/c2cc(=O)c3c(OC)c4ccoc4cc3o2)cc1OC [Example 7, 4-Methoxy-7-(3,4-Dimethoxystyryl)-5H -Furo[3,2-g]Benzopyran-5-One] | – | –
6 | 7.5 | Cc1c(/C=C/c2ccccc2)oc2c(C)cccc2c1=O [Example 17, 3,8-Dimethyl-2-Styryl-4H-1-Benzopyran-4-One] | – | –
7 | 5.85 | C=CCc1cccc2c(=O)cc(/C=C/c3ccccc3)oc12 [Example 18, 8-Allyl-2-Styryl-4H-1-Benzopyran-4-One] | – | –
8 | 6.6 | C=CCc1cccc2c(=O)c(C)c(/C=C/c3ccccc3)oc12 [Example 19, 8-Allyl-3-Methyl-2-Styryl-4H-1-Benzopyran-4-One] | 45 | –
9 | 3 | C=CCc1cc(OC)cc2c(=O)cc(/C=C/c3ccccc3)oc12 [Example 20, 6-Methoxy-8-Allyl-2-Styryl-4H-1-Benzopyran-4-One] | – | –
10 | 7.25 | CCCc1cccc2c(=O)cc(/C=C/c3ccccc3)oc12 [Example 21, 8-Propyl-2-Styryl-4H-1-Benzopyran-4-One] | – | –
11 | – | hormo-thamnione | – | Cytotoxic properties [5]: cytotoxic properties

Row | Compound | IC50 [3] [µM] | % of positive NBT cells [1] [%] | further results
12 | CC1=C(/C=C/C(C)=C/C=C/C(C)=C/C(=O)O)C(C)(C)CCC1 [Retinoic acid, reference compound] | 20.1 | – | Hypervitamin A toxicity [4]: causing hypervitamin A toxicity
